In patent publication US20070142378A1, “Method of treating restless legs syndrome and/or periodic limb movement disorder with (2s,3s) 2-(3-chlorophenyl)-3,5,5-trimethyl-2-morpholinol” (Smith Kline Beecham Corporation, priority 2003, published 2007):
pIC50: −log10 of the molar value. Structures can show the parent of a compound that is named as a salt.

Columns and labels:
[1] = target: T1, serotonin uptake, synaptosomes from rat hypothalamus (Rattus norvegicus, UniProt P31652); test: In vitro synaptosomal uptake of [3H]-serotonin; format: biochemical; conditions: at 30 μM
T1 construct: Synaptosomes for use in obtaining in vitro uptake data were prepared from hypothalamus or striatum by gently homogenizing the tissue; from tissue; host or cells: rat hypothalamus synaptosomes
T1 sequence (P31652 whole entry): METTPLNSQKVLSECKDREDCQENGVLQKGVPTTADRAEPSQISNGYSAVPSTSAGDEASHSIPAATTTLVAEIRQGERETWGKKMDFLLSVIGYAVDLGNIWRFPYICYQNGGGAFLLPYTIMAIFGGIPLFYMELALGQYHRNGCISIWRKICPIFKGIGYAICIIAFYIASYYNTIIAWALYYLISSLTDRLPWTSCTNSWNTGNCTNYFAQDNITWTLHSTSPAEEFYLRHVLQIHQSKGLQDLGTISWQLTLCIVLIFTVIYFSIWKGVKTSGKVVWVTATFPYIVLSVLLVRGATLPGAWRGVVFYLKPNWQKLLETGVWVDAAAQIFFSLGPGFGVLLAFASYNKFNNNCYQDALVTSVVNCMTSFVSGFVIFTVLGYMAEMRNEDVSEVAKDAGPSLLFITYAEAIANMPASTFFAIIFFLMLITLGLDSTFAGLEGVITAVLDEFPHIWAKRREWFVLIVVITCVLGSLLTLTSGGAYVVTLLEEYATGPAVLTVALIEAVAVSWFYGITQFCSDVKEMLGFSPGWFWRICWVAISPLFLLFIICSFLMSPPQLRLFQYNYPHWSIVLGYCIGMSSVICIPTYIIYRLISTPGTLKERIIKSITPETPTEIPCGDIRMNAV
Text: Similarities and differences. Molecular Pharmacology, 21: p.

[2] = target: T2, dopamine transporter (DAT) (Homo sapiens, UniProt Q01959); test: Dopamine transporter (DAT) receptor occupancy study, PET with 11C-βCIT-FE; format: in vivo; conditions: for DAT receptor occupancy: Part A, healthy male volunteers, PET 2.5 hours after initiation of dosing; for average DAT receptor occupancy: Part B, 60 mg modified release oral once daily for 6 days
T2 construct: from tissue; host or cells: striatum of healthy male volunteers, in vivo PET with 11C-βCIT-FE
T2 sequence (Q01959 whole entry): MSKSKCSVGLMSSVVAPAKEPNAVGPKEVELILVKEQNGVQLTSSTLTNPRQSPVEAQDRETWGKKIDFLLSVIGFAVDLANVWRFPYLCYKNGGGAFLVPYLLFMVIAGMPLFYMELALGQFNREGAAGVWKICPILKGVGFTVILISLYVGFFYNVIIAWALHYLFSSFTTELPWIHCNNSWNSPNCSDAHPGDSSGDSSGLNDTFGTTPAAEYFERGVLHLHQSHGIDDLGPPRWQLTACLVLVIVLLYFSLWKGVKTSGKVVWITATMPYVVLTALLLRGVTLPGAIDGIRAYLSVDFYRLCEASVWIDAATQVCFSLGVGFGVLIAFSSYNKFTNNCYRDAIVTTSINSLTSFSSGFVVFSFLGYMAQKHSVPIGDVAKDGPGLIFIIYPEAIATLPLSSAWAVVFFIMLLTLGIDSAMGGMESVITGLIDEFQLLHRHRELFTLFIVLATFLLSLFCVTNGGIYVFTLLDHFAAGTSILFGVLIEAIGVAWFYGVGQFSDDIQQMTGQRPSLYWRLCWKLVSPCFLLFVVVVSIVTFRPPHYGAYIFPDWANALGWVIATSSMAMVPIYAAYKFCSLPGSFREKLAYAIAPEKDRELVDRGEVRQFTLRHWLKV
Experimental: The study was conducted in two parts. Part A utilized positron emission tomography (PET) to characterize the concentration-percent occupancy relationship with respect to the dopamine transporter (DAT) after dosing with intravenous compound of formula (I) to pseudo-steady-state. Part B utilized PET to evaluate the time course of occupancy at the dopamine transporter following steady-state dosing of the compound of formula (I) via a modified release oral formulation. The tracer used in this study to assess the occupancy at the DAT was ^11C-βCIT-FE.
Part A. Six healthy male volunteers each received a 20.6 mg intravenous dose of the compound of formula (I) administered via a 2-hour loading infusion followed by a 2-hour maintenance infusion to achieve pseudo-steady-state. Each subject then received two additional doses (61.8 mg and 91.2 mg) of the compound of formula (I), with each dose separated by 3 weeks. A baseline PET scan was performed between 1 and 7 days prior to first dosing with formula (I), and then each post-dose PET scan performed 2.5 hours after the initiation of each of the three dosing regimens.
The concentrate solution for infusion was formulated to contain 10 mg free base equivalent per mL as the hydrochloride salt of the compound of formula (I), and consisted of a clear, colorless solution, pH adjusted to approximately 4.5, buffered with 50 mmol citrate buffer. The product was diluted to a total volume of 250 mL with 0.9% weight-to-volume ratio (w/v) sodium chloride injection prior to being administered.
Part B. Six healthy male volunteers received 60 mg of the compound of formula (I) via a modified release oral formulation once daily for 6 days in order to achieve steady-state by the last day. Four ^11C-βCIT-FE PET scans were performed for each subject, the first between 1 and 7 days prior to dosing and the remaining three at 6, 12 and 24 hours following the final dose on Day 6. The oral formulations were uncoated tablets, containing 20 mg and 40 mg of the compound of formula (I) as the hydrochloride salt details of the formulations are set out below as Examples 6 and 7 (prepared by an analogous method to Examples 1 to 5 above).

[3] = target: T3, noradrenaline (NA) uptake, synaptosomes from rat hypothalamus (Rattus norvegicus, UniProt Q63380); test: In vitro synaptosomal uptake of [3H]-NA; format: biochemical
T3 construct: Synaptosomes for use in obtaining in vitro uptake data were prepared from hypothalamus or striatum by gently homogenizing the tissue; from tissue; host or cells: rat hypothalamus synaptosomes (1100 x g supernatant)
T3 sequence (Q63380 1-617): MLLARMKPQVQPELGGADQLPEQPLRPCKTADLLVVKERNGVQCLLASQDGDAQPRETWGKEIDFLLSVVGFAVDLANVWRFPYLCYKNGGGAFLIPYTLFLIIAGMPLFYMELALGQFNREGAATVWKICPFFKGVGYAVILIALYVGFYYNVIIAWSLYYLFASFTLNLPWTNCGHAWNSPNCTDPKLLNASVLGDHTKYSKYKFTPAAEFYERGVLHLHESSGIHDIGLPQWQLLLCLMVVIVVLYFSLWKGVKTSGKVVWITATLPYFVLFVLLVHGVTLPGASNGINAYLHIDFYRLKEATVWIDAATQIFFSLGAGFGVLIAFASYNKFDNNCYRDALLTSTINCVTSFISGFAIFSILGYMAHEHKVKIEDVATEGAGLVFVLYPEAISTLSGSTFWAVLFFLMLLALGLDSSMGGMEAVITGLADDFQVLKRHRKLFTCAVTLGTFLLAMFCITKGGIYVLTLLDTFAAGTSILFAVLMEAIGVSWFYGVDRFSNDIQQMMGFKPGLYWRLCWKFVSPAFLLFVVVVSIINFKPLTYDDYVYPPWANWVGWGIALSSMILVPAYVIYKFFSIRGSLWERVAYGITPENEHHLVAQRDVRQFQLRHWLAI
Experimental: In vitro uptake was determined, as reported previously, using synaptosomes prepared from rat caudoputamen (for dopamine uptake) and hypothalamus (for NA and serotonin uptake) using [^3H]-dopamine, [^3H]-NA and [^3H]-serotonin as transport substrates, respectively. See Eckhardt, S. B., R. A. Maxwell, and R. M. Ferris, A Structure-Activity Study of the Transport Sites for the Hypothalamic and Striatal Catecholamine Uptake Systems. Similarities and differences. Molecular Pharmacology, 21: p. 374-9,1982
Synaptosomes for use in obtaining in vitro uptake data were prepared from hypothalamus or striatum by gently homogenizing the tissue in a 0.3 M sucrose/25 mM Tris pH 7.4 buffer containing iproniazid phosphate to inhibit monoamine oxidase. The homogenate was centrifuged at 1100×g at 4° C. for 10 min and the supernatant was used for uptake studies. […] Under these conditions uptake was linear with respect to both for substrate and tissue (with <5% total substrate transported). Non-specific uptake was defined as uptake at 0° C. [^3H]-substrate, which had been transported into synaptosomes, was separated from free [^3H]-substrate by filtration over GF/B filters and washing with cold Krebs-Henseleit buffer. The filters were counted for tritum in a liquid scintillation spectrometer.

[4] = system: cell-lines expressing human monoamine transporters; test: Compound-induced cytotoxicity in the transporter-expressing cells; format: cell-based; conditions: at any of the concentrations causing reuptake inhibition

Row | Compound | inhibition of serotonin uptake [1] | DAT receptor occupancy ([2]; 20.6 mg intravenous) | DAT receptor occupancy ([2]; 61.8 mg intravenous) | DAT receptor occupancy ([2]; 91.2 mg intravenous) | average DAT receptor occupancy ([2]; 6 hours after the last dose) | average DAT receptor occupancy ([2]; during the following 6 hours (12 hour scan)) | pIC50 [3] | cytotoxicity [4]
1 | C[C@@H]1NC(C)(C)CO[C@@]1(O)c1cccc(Cl)c1 [Formula (I), (+)-(2S,3S)-2-(3-chlorophenyl)-3,5,5-trimethyl-2-morpholinol] | no inhibition | 14±0.38% | 37±8.0% | 47±6.8% | 29±5.3% | 27±11.3% | 5.96 | 
2 | C[C@@H]1NC(C)(C)CO[C@@]1(O)c1cccc(Cl)c1 [Formula (I).HCl, (+)-(2S, 3S)2-(3-chlorophenyl)-3,5,5-trimethyl-2-morpholinol hydrochloride] |  |  |  |  |  |  |  | No cytotoxicity was observed
